{"source": "patent US12687554B2", "about": "“Molecular profiling of tumors” (Caris MPI, Inc., priority 2006, dated 2026)", "origin": "cited, not measured here", "test_system": "differentially expressed or mutated biomarker in cancer cells", "key": {"[1]": {"conditions": "EGFR, FISH, Positive, with loss of PTEN, mutation of KRAS or BRAF per Summary"}, "[2]": {"conditions": "EGFR, Mutational Analysis, Mutated"}, "[3]": {"conditions": "EGFR, Mutational Analysis, Wild type genotype"}, "[4]": {"conditions": "PTEN, IHC, Above Threshold, with the other biomarker results named in the Summary"}, "[5]": {"conditions": "biomarker PTEN, IHC, result Above Threshold, with the other biomarker results named in the Summary"}, "[6]": {"conditions": "biomarker PTEN, IHC, result Negative (loss of PTEN protein expression)"}, "[7]": {"conditions": "KRAS, Mutational Analysis, Mutated"}, "[8]": {"conditions": "KRAS, Mutational Analysis, Wild type genotype"}, "[9]": {"conditions": "KRAS, Mutational Analysis, Wild type genotype, with loss of PTEN and/or FISH negative EGFR per Summary"}, "[10]": {"conditions": "biomarker EGFR, FISH, result Negative (lack of EGFR gene copy number increase)"}, "[11]": {"conditions": "biomarker EGFR, FISH, result Positive (high EGFR gene copy number)"}, "[12]": {"conditions": "biomarker EGFR, FISH, result Positive, with the other biomarker results named in the Summary"}, "[13]": {"conditions": "biomarker EGFR, Mutational Analysis, result Mutated"}, "[14]": {"conditions": "biomarker EGFR, Mutational Analysis, result Mutated, with the other biomarker results named in the Summary"}, "[15]": {"conditions": "biomarker EGFR, Mutational Analysis, result Wild type genotype"}, "[16]": {"conditions": "biomarker KRAS, Mutational Analysis, result Wild type genotype"}, "[17]": {"conditions": "biomarker KRAS, Mutational Analysis, result Wild type genotype, with the other biomarker results named in the Summary"}, "[18]": {"conditions": "biomarker KRAS, Mutational Analysis, result Mutated"}}, "note": "Entries after “also recorded” stand apart in the source; their conditions may differ. Like-named read-outs stand apart in the source and are kept apart here."}
{"molecule": "CC1=C(/C=C/C(C)=C/C=C/C(C)=C/C(=O)O)C(C)(C)CCC1", "note": "[ATRA]", "values": [{"measurement": "Recommended Agents", "setting": "RARA, Microarray, Overexpressed, for use only on hematologic malignancies", "value": "ATRA"}]}
{"molecule": "C#Cc1cccc(Nc2ncnc3cc(OCCOC)c(OCCOC)cc23)c1", "note": "[Erlotinib]", "values": [{"measurement": "Resistant Agents", "setting": "EGFR, FISH, Negative", "value": "Erlotinib"}, {"measurement": "Resistant Agents", "setting": "[1]", "value": "Erlotinib"}, {"measurement": "Recommended Agents", "setting": "[2]", "value": "Erlotinib"}, {"measurement": "Resistant Agents", "setting": "[3]", "value": "Erlotinib"}, {"measurement": "Recommended Agents", "setting": "[4]", "value": "Erlotinib; also recorded: Erlotinib,"}, {"measurement": "Resistant Agents", "setting": "PTEN, IHC, Negative", "value": "Erlotinib,"}, {"measurement": "Resistant Agents", "setting": "[5]", "value": "Erlotinib"}, {"measurement": "Resistant Agents", "setting": "[6]", "value": "Erlotinib,; also recorded: Erlotinib"}]}
{"molecule": "COc1cc2ncnc(Nc3ccc(F)c(Cl)c3)c2cc1OCCCN1CCOCC1", "note": "[Gefitinib]", "values": [{"measurement": "Resistant Agents", "setting": "EGFR, FISH, Negative", "value": "Gefitinib"}, {"measurement": "Resistant Agents", "setting": "[1]", "value": "Gefitinib"}, {"measurement": "Recommended Agents", "setting": "[2]", "value": "Gefitinib"}, {"measurement": "Resistant Agents", "setting": "[3]", "value": "Gefitinib"}, {"measurement": "Recommended Agents", "setting": "[4]", "value": "Gefitinib; also recorded: Gefitinib,"}, {"measurement": "Resistant Agents", "setting": "[4]", "value": "Gefitinib"}, {"measurement": "Resistant Agents", "setting": "[5]", "value": "Gefitinib"}, {"measurement": "Resistant Agents", "setting": "[6]", "value": "Gefitinib,; also recorded: Gefitinib"}]}
{"molecule": "CC(=O)Oc1ccccc1C(=O)O", "note": "[aspirin]", "values": [{"measurement": "Recommended Agents", "setting": "COX-2, IHC, Above Threshold", "value": "aspirin"}, {"measurement": "Resistant Agents", "setting": "COX-2, IHC, Negative", "value": "aspirin"}]}
{"molecule": "CC(=O)Oc1ccccc1C(=O)O", "note": "[asprin]", "values": [{"measurement": "Recommended Agents", "setting": "COX-2, Microarray, Overexpressed", "value": "asprin"}]}
{"molecule": "C#Cc1cccc(Nc2ncnc3cc(OCCOC)c(OCCOC)cc23)c1", "note": "[erlotinib]", "values": [{"measurement": "Resistant Agents", "setting": "EGFR, FISH, Negative", "value": "erlotinib"}, {"measurement": "Recommended Agents", "setting": "EGFR, FISH, Positive", "value": "erlotinib"}, {"measurement": "Resistant Agents", "setting": "[1]", "value": "erlotinib"}, {"measurement": "Resistant Agents", "setting": "[7]", "value": "erlotinib"}, {"measurement": "Recommended Agents", "setting": "[8]", "value": "erlotinib"}, {"measurement": "Resistant Agents", "setting": "[9]", "value": "erlotinib"}, {"measurement": "Recommended Agents", "setting": "[4]", "value": "erlotinib"}, {"measurement": "Resistant Agents", "setting": "[4]", "value": "erlotinib"}, {"measurement": "Resistant Agents", "setting": "PTEN, IHC, Negative", "value": "erlotinib"}, {"measurement": "Resistant Agents", "setting": "[10]", "value": "erlotinib"}, {"measurement": "Recommended Agents", "setting": "[11]", "value": "erlotinib"}, {"measurement": "Resistant Agents", "setting": "[12]", "value": "erlotinib"}, {"measurement": "Recommended Agents", "setting": "[13]", "value": "erlotinib"}, {"measurement": "Resistant Agents", "setting": "[14]", "value": "erlotinib"}, {"measurement": "Resistant Agents", "setting": "[15]", "value": "erlotinib"}, {"measurement": "Recommended Agents", "setting": "[16]", "value": "erlotinib"}, {"measurement": "Resistant Agents", "setting": "[17]", "value": "erlotinib"}, {"measurement": "Resistant Agents", "setting": "[5]", "value": "erlotinib"}, {"measurement": "Resistant Agents", "setting": "[6]", "value": "erlotinib,"}]}
{"molecule": "COc1cc2ncnc(Nc3ccc(F)c(Cl)c3)c2cc1OCCCN1CCOCC1", "note": "[gefitinib]", "values": [{"measurement": "Recommended Agents", "setting": "EGFR, FISH, Positive", "value": "gefitinib"}, {"measurement": "Resistant Agents", "setting": "[1]", "value": "gefitinib"}, {"measurement": "Resistant Agents", "setting": "[7]", "value": "gefitinib"}, {"measurement": "Recommended Agents", "setting": "[8]", "value": "gefitinib"}, {"measurement": "Resistant Agents", "setting": "[9]", "value": "gefitinib"}, {"measurement": "Recommended Agents", "setting": "[4]", "value": "gefitinib"}, {"measurement": "Resistant Agents", "setting": "[4]", "value": "gefitinib"}, {"measurement": "Resistant Agents", "setting": "PTEN, IHC, Negative", "value": "gefitinib"}, {"measurement": "Resistant Agents", "setting": "[10]", "value": "gefitinib"}, {"measurement": "Recommended Agents", "setting": "[11]", "value": "gefitinib"}, {"measurement": "Resistant Agents", "setting": "[12]", "value": "gefitinib"}, {"measurement": "Recommended Agents", "setting": "[13]", "value": "gefitinib"}, {"measurement": "Resistant Agents", "setting": "[14]", "value": "gefitinib"}, {"measurement": "Resistant Agents", "setting": "[15]", "value": "gefitinib"}, {"measurement": "Resistant Agents", "setting": "[18]", "value": "gefitinib"}, {"measurement": "Recommended Agents", "setting": "[16]", "value": "gefitinib"}, {"measurement": "Resistant Agents", "setting": "[17]", "value": "gefitinib"}, {"measurement": "Recommended Agents", "setting": "biomarker PTEN, IHC, result Above Threshold", "value": "gefitinib"}, {"measurement": "Resistant Agents", "setting": "[5]", "value": "gefitinib"}]}
{"molecule": "Cc1ccc(NC(=O)c2ccc(CN3CCN(C)CC3)cc2)cc1Nc1nccc(-c2cccnc2)n1", "note": "[imatinib]", "values": [{"measurement": "Recommended Agents", "setting": "c-kit, Mutational Analysis, Mutated, mutations in exon 9", "value": "imatinib"}, {"measurement": "Resistant Agents", "setting": "c-kit, Mutational Analysis, Mutated, mutations in exon 11", "value": "imatinib"}, {"measurement": "Recommended Agents", "setting": "c-kit, Mutational Analysis, Wild type genotype", "value": "imatinib"}]}
{"molecule": "CS(=O)(=O)CCNCc1ccc(-c2ccc3ncnc(Nc4ccc(OCc5cccc(F)c5)c(Cl)c4)c3c2)o1", "note": "[lapatinib]", "values": [{"measurement": "Recommended Agents", "setting": "Her2/Neu, FISH, Amplified", "value": "lapatinib"}, {"measurement": "Resistant Agents", "setting": "Her2/Neu, FISH, Not Amplified", "value": "lapatinib"}, {"measurement": "Recommended Agents", "setting": "Her2/Neu, IHC, Above Threshold", "value": "lapatinib"}, {"measurement": "Resistant Agents", "setting": "Her2/Neu, IHC, Negative", "value": "lapatinib"}, {"measurement": "Resistant Agents", "setting": "[4]", "value": "lapatinib"}, {"measurement": "Resistant Agents", "setting": "PTEN, IHC, Negative", "value": "lapatinib"}]}
{"molecule": "Panitumumab", "values": [{"measurement": "Resistant Agents", "setting": "[1]", "value": "Panitumumab,"}, {"measurement": "Recommended Agents", "setting": "[4]", "value": "Panitumumab,"}, {"measurement": "Resistant Agents", "setting": "[5]", "value": "Panitumumab,"}, {"measurement": "Resistant Agents", "setting": "[6]", "value": "Panitumumab,"}]}
{"molecule": "panitumumab", "values": [{"measurement": "Resistant Agents", "setting": "BRAF, Mutational Analysis, Mutated", "value": "panitumumab"}, {"measurement": "Recommended Agents", "setting": "BRAF, Mutational Analysis, Wild type genotype", "value": "panitumumab"}, {"measurement": "Resistant Agents", "setting": "BRAF, Mutational Analysis, Wild type genotype, with loss of PTEN and/or FISH negative EGFR per Summary", "value": "panitumumab"}, {"measurement": "Resistant Agents", "setting": "[1]", "value": "panitumumab,"}, {"measurement": "Resistant Agents", "setting": "[7]", "value": "panitumumab,"}, {"measurement": "Recommended Agents", "setting": "[8]", "value": "panitumumab,"}, {"measurement": "Resistant Agents", "setting": "[9]", "value": "panitumumab,"}, {"measurement": "Recommended Agents", "setting": "[4]", "value": "panitumumab,; also recorded: panitumumab"}, {"measurement": "Resistant Agents", "setting": "[4]", "value": "panitumumab,"}, {"measurement": "Resistant Agents", "setting": "PTEN, IHC, Negative", "value": "panitumumab,"}, {"measurement": "Resistant Agents", "setting": "biomarker BRAF, Mutational Analysis, result Mutated", "value": "panitumumab"}, {"measurement": "Resistant Agents", "setting": "biomarker BRAF, Mutational Analysis, result Wild type genotype, with the other biomarker results named in the Summary", "value": "panitumumab"}, {"measurement": "Resistant Agents", "setting": "[10]", "value": "panitumumab,"}, {"measurement": "Resistant Agents", "setting": "[12]", "value": "panitumumab,"}, {"measurement": "Resistant Agents", "setting": "[18]", "value": "panitumumab,"}, {"measurement": "Resistant Agents", "setting": "[17]", "value": "panitumumab,"}, {"measurement": "Resistant Agents", "setting": "[5]", "value": "panitumumab,"}, {"measurement": "Resistant Agents", "setting": "[6]", "value": "panitumumab,"}]}
